# From patent US20250179022A1, “COMPOUND USED AS TYK2 INHIBITOR, PREPARATION METHOD THEREFOR, AND PHARMACEUTICAL USE THEREOF” (SHANGHAI ZHIGEN PHARMACEUTICAL & TECHNOLOGY CO. LTD., priority 2022, published 2025)
# Experiment: In vivo pharmacokinetic experiments in Beagle dogs (oral)
# Conditions: 2 mg/kg
# Method: Experimental Methods: Healthy male Beagle dogs were randomly grouped into 3 […] in each group, and were given the test compounds orally. Before the gavage experiment, the dogs were fasted for 12 h, drank water freely, and were uniformly fed for 4 h after the administration of the drug. 0.083, 0.25, 0.5, 1.0, 2.0, 4.0, 6.0, 8.0, 10 and 24 h after administration; about 600 μL of blood was collected from the forelimb or hindlimb at the above set time points and placed in EDTA-K2 tubes, and the whole blood was collected and stored temporarily in an ice-water bath, and then centrifuged at least 3500 rpm for 10 min within 30 min, and the plasma was separated and frozen in a −70° C. refrigerator for testing.
smiles,measurement,setting,value
[2H]C([2H])([2H])NC(=O)c1nnc(NC(=O)C2CC2)cc1Nc1nc(N)c(Cl)cc1[S@@](C)(=O)=NC [Example 28],AUC,,6684 ngh/mL
same,F,,117%
same,Cmax,"male, dog, plasma",485 ng/mL
same,MRT,"male, dog, plasma",10.7 h
same,half-life,"male, dog, plasma",436 min
